Experiments:
Human μ-opioid (MOP) = biological target: T1, Human μ-opioid (MOP) (Homo sapiens, UniProt P35372); test: Radioligand binding, human μ-opioid (MOP) membranes, FlashPlate, [3H]-Naloxone; settings: compound at 10 μM; for A7: inhibition of radioligand binding, human μ-opioid (MOP): [3H]-Naloxone
T1 construct: purchased Perkin Elmer Biosignal
Method in brief: (§1)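 Cloned human receptor membranes were coated onto FlashPlate wells and incubated with radioligand and compound (added from a 0.5 mM DMSO daughter plate) for 1 hour at room temperature in the dark. Scintillation counting gave percent inhibition, with DMSO defining total and reference ligand defining non-specific binding.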

[1] = biological target: T2, Human neuropeptide Y (NPY-Y1) (Homo sapiens, UniProt P25929); test: Radioligand binding, human neuropeptide Y NPY-Y1 membranes, FlashPlate, [125I]-PYY; settings: compound at 10 μM; for A9: inhibition of radioligand binding, human neuropeptide Y (NPY-Y1): [125I]-PYY
T2 construct: purchased Perkin Elmer Biosignal
T2 sequence (P25929 1-384): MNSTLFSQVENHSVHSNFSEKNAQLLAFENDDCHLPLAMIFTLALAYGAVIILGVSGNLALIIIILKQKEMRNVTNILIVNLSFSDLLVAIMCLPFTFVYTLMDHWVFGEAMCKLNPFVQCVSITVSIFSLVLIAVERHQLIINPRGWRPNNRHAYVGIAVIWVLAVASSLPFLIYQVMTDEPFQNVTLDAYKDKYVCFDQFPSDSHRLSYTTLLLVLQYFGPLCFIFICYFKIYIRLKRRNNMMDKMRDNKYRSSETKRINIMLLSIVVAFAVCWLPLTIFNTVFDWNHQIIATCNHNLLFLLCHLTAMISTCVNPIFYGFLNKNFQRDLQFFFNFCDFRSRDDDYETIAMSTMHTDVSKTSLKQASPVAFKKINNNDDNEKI
Method in brief: as §1

[2] = biological target: T3, Human melanin-concentrating hormone (MCH1) (Homo sapiens, UniProt Q99705); test: Radioligand binding, human melanin-concentrating hormone MCH1 membranes, FlashPlate, [125I]-S36057; settings: compound at 10 μM; for A6: inhibition of radioligand binding, human melanin-concentrating hormone (MCH1): [125I]-S36057
T3 construct: purchased Perkin Elmer Biosignal
Method in brief: as §1

Human neurokinin (NK1) = biological target: T4, Human neurokinin (NK1) (Homo sapiens, UniProt P25103); test: Radioligand binding, human neurokinin NK1 membranes, filtration, [125I]-Substance P; settings: compound at 10 μM; for A8: inhibition of radioligand binding, human neurokinin (NK1): [125I]-Substance P
T4 construct: purchased Perkin Elmer Biosignal
Method in brief: (§2)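 Filtration binding on cloned human receptor membranes (1 Unit/well), [125I]-Substance P for NK1 and [3H]-Diprenorphine for KOP, 1 h at room temperature. Filters PEI-presoaked, washed with cold 50 mM Tris-HCl pH 7.4, counted by scintillation; percent inhibition calculated, reference ligand defining non-specific binding.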

Human melanocortin (MC5) = biological target: T5, Human melanocortin (MC5) (Homo sapiens, UniProt P33032); test: Radioligand binding, human melanocortin MC5 membranes, FlashPlate, [125I]-NDP-αMSH; settings: compound at 10 μM; for A5: inhibition of radioligand binding, human melanocortin (MC5): [125I]-NDP-αMSH
T5 construct: purchased Perkin Elmer Biosignal
Method in brief: as §1

Human Melanocortin (MC4) = biological target: T6, Human Melanocortin (MC4) (Homo sapiens, UniProt P32245); test: Radioligand binding, human melanocortin MC4 membranes, FlashPlate, [125I]-NDP-αMSH; settings: compound at 10 μM; for A4: inhibition of radioligand binding, human melanocortin (MC4): [125I]-NDP-αMSH
T6 construct: purchased Perkin Elmer Biosignal
Method in brief: as §1

Mouse urotensin (mUR2) = biological target: T7, Mouse urotensin (mUR2) (Mus musculus, UniProt Q8VIH9); test: Radioligand binding, mouse urotensin mUR2 membranes, FlashPlate, [125I]-Urotensin II; settings: compound at 10 μM; for A11: inhibition of radioligand binding, mouse urotensin (mUR2): [125I]-Urotensin II
T7 construct: purchased Perkin Elmer Biosignal
T7 sequence (Q8VIH9 1-385): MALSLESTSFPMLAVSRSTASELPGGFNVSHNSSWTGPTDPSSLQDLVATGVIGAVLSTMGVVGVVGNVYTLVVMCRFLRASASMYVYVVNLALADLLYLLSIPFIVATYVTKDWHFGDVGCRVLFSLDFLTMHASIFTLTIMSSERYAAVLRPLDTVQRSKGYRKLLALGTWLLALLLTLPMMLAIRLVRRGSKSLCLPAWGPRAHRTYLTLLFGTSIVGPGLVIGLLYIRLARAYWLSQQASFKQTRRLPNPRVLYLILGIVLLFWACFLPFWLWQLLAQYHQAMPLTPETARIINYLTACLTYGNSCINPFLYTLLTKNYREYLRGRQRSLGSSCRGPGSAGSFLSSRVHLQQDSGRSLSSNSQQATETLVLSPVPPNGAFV
Method in brief: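 Cloned mouse urotensin (mUR2) receptor membranes from Perkin Elmer Biosignal were immobilized in FlashPlate microplates using a proprietary coating. Each well got 19.5 μl buffer, then 0.5 μl of DMSO, reference ligand, or compound. Adding 5 μl of [125I]-Urotensin II, diluted to 5× final concentration in binding buffer, started binding. Plates were sealed with TopSeal-A and incubated 1 hour at room temperature in the dark. Wells were counted for 30 seconds each on a TopCount after a 60-second delay, and percentage inhibition was calculated.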

Human opioid (ORL1) = biological target: T8, Human opioid (ORL1) (Homo sapiens, UniProt P41146); test: Radioligand binding, human opioid ORL1 membranes, FlashPlate, [125I]-Nociceptin; settings: compound at 10 μM; for A10: inhibition of radioligand binding, human opioid (ORL1): [125I]-Nociceptin
T8 construct: purchased Perkin Elmer Biosignal
Method in brief: as §1

Human δ-opioid (DOP) = biological target: T9, Human δ-opioid (DOP) (Homo sapiens, UniProt P41143); test: Radioligand binding, human δ-opioid (DOP) membranes, FlashPlate, [3H]-Bremazocine; settings: compound at 10 μM; for A1: inhibition of radioligand binding, human δ-opioid (DOP): [3H]-Bremazocine
T9 construct: purchased Perkin Elmer Biosignal
Method in brief: as §1

Human Melanocortin (MC3) = biological target: T10, Human Melanocortin (MC3) (Homo sapiens, UniProt P41968); test: Radioligand binding, human melanocortin MC3 membranes, FlashPlate, [125I]-NDP-αMSH; settings: compound at 10 μM; for A3: inhibition of radioligand binding, human melanocortin (MC3): [125I]-NDP-αMSH
T10 construct: purchased Perkin Elmer Biosignal
Method in brief: as §1

Human κ-Opioid (KOP) = biological target: T11, Human κ-Opioid (KOP) (Homo sapiens, UniProt P41145); test: Radioligand binding, human κ-opioid (KOP) membranes, filtration, [3H]-Diprenorphine; settings: compound at 10 μM; for A2: inhibition of radioligand binding, human κ-opioid (KOP): [3H]-Diprenorphine
T11 construct: purchased Perkin Elmer Biosignal
Method in brief: as §2

T11 sequence (P41145 whole entry): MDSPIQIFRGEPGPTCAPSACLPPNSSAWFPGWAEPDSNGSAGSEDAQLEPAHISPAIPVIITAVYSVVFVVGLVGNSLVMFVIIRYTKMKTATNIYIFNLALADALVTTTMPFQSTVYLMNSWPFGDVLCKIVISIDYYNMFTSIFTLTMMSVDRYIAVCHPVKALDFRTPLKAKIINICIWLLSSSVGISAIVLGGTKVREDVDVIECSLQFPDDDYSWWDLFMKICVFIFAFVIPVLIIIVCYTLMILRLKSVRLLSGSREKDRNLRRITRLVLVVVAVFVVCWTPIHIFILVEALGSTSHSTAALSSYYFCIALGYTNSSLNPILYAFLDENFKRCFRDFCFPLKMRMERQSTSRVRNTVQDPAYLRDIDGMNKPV
T9 sequence (P41143 whole entry): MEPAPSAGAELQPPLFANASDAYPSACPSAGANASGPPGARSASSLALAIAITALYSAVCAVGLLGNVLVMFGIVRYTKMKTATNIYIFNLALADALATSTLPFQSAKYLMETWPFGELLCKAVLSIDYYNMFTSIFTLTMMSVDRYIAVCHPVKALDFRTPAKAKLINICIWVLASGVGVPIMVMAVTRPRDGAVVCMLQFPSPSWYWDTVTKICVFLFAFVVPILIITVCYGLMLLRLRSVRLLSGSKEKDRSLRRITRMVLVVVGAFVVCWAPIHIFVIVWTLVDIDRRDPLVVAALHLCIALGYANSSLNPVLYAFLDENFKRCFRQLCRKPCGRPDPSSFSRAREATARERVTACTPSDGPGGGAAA
T6 sequence (P32245 whole entry): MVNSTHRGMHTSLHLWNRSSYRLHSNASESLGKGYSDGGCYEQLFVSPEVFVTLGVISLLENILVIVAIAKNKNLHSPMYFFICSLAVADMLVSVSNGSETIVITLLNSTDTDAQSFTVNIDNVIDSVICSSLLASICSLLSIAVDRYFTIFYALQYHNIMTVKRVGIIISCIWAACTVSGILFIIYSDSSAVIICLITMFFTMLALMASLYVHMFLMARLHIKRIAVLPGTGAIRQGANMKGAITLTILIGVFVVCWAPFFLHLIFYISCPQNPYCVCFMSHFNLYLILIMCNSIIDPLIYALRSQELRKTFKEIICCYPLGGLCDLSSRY
T3 sequence (Q99705 whole entry): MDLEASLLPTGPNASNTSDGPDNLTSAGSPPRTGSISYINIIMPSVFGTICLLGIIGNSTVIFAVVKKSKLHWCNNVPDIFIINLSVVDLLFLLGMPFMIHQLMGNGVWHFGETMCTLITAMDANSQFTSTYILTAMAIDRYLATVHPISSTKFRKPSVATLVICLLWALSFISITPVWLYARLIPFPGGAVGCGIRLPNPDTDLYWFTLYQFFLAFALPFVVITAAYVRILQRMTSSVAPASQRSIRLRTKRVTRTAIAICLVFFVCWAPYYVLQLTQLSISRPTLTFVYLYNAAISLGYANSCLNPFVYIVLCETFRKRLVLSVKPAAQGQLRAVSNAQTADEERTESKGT
T5 sequence (P33032 whole entry): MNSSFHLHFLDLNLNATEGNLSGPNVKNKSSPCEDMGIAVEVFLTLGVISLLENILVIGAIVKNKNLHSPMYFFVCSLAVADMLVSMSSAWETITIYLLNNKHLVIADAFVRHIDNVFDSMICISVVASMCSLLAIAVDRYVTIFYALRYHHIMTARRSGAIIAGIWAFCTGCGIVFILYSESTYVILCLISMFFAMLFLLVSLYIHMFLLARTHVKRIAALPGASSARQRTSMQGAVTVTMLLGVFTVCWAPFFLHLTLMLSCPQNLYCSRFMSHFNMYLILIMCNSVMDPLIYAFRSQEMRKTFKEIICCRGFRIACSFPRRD
T8 sequence (P41146 whole entry): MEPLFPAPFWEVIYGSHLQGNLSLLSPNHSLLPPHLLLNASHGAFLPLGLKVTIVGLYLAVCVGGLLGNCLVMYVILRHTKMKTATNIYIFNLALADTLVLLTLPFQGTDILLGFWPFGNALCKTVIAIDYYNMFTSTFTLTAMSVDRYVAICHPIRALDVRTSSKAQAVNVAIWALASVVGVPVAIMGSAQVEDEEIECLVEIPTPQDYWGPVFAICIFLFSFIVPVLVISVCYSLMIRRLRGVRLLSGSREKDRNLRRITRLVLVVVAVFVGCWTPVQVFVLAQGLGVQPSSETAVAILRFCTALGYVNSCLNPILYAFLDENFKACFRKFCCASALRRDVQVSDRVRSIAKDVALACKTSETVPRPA
T10 sequence (P41968 whole entry): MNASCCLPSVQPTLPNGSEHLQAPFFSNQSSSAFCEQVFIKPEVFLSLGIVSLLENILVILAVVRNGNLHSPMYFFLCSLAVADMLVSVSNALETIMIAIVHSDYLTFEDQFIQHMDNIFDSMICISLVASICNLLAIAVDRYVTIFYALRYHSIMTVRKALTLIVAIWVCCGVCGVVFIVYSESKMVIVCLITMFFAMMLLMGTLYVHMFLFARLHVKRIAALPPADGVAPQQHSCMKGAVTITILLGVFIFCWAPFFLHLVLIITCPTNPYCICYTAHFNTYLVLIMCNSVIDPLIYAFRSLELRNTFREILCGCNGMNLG
T1 sequence (P35372 whole entry): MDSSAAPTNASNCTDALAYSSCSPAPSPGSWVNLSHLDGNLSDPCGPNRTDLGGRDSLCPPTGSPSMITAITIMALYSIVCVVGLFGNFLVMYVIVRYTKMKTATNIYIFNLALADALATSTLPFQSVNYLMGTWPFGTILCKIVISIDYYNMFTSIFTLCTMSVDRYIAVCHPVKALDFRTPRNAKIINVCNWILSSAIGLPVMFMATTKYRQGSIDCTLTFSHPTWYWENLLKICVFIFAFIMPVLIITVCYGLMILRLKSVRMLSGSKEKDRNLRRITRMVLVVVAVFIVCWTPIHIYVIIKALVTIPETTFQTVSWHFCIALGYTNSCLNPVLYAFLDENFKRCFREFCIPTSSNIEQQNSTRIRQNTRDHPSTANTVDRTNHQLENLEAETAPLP
T4 sequence (P25103 whole entry): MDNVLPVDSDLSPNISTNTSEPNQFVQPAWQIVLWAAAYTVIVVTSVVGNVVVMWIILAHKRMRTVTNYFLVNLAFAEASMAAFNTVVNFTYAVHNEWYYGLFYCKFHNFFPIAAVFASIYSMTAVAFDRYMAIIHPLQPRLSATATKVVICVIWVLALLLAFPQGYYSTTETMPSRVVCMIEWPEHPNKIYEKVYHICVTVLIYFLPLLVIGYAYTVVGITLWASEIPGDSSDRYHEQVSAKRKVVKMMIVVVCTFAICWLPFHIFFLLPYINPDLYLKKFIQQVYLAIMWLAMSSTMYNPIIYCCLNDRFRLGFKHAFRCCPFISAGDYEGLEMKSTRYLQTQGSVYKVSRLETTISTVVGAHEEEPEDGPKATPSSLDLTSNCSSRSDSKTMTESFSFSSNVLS

| Compound | A7: inhibition of radioligand binding, human μ-opioid (MOP) (Human μ-opioid (MOP)) | A9: inhibition of radioligand binding, human neuropeptide Y (NPY-Y1) [1] | A6: inhibition of radioligand binding, human melanin-concentrating hormone (MCH1) [2] | A8: inhibition of radioligand binding, human neurokinin (NK1) (Human neurokinin (NK1)) | A5: inhibition of radioligand binding, human melanocortin (MC5) (Human melanocortin (MC5)) | A4: inhibition of radioligand binding, human melanocortin (MC4) (Human Melanocortin (MC4)) | A11: inhibition of radioligand binding, mouse urotensin (mUR2) (Mouse urotensin (mUR2)) | A10: inhibition of radioligand binding, human opioid (ORL1) (Human opioid (ORL1)) | A1: inhibition of radioligand binding, human δ-opioid (DOP) (Human δ-opioid (DOP)) | A3: inhibition of radioligand binding, human melanocortin (MC3) (Human Melanocortin (MC3)) | A2: inhibition of radioligand binding, human κ-opioid (KOP) (Human κ-Opioid (KOP)) | other results |
| --- | --- | --- | --- | --- | --- | --- | --- | --- | --- | --- | --- | --- |
| Cc1ccc(CO[C@H]2[C@H](O)[C@@H](CO)OC(NC(=O)CCN)[C@@H]2NC(=O)c2ccccc2)cc1 (stereo partly shown) [compound 357] | − (“−” indicates less than 50% inhibition at 10 μM) | − (“−” indicates less than 50% inhibition at 10 μM) | + (“+” indicates greater than 50% inhibition at 10 μM) | − (“−” indicates less than 50% inhibition at 10 μM) | − (“−” indicates less than 50% inhibition at 10 μM) | − (“−” indicates less than 50% inhibition at 10 μM) | − (“−” indicates less than 50% inhibition at 10 μM) | − (“−” indicates less than 50% inhibition at 10 μM) | − (“−” indicates less than 50% inhibition at 10 μM) | − (“−” indicates less than 50% inhibition at 10 μM) | − (“−” indicates less than 50% inhibition at 10 μM) |  |
| CSC1OC(COCc2ccc(Cl)cc2)C(O)C(OCc2ccc3ccccc3c2)C1NC(=O)CCN (stereo not shown) [compound 308] | − (“−” indicates less than 50% inhibition at 10 μM) | − (“−” indicates less than 50% inhibition at 10 μM) | − (“−” indicates less than 50% inhibition at 10 μM) | + (“+” indicates greater than 50% inhibition at 10 μM) | − (“−” indicates less than 50% inhibition at 10 μM) | − (“−” indicates less than 50% inhibition at 10 μM) | − (“−” indicates less than 50% inhibition at 10 μM) | − (“−” indicates less than 50% inhibition at 10 μM) | − (“−” indicates less than 50% inhibition at 10 μM) | − (“−” indicates less than 50% inhibition at 10 μM) | − (“−” indicates less than 50% inhibition at 10 μM) |  |
| N=C(N)NCC(=O)NC1C(OCc2ccc(Cl)cc2)OC(COCc2ccc3ccccc3c2)C(O)C1OCc1ccc(Cl)cc1 (single isomer, unassigned) [compound 507] | − (“−” indicates less than 50% inhibition at 10 μM) | − (“−” indicates less than 50% inhibition at 10 μM) | + (“+” indicates greater than 50% inhibition at 10 μM) | + (“+” indicates greater than 50% inhibition at 10 μM) | + (“+” indicates greater than 50% inhibition at 10 μM) | + (“+” indicates greater than 50% inhibition at 10 μM) | − (“−” indicates less than 50% inhibition at 10 μM) | + (“+” indicates greater than 50% inhibition at 10 μM) | − (“−” indicates less than 50% inhibition at 10 μM) |  |  | A3: inhibition of radioligand binding, human melanocortin (MC3) (Human Melanocortin (MC3); 10 µM): − (“−” indicates less than 50% inhibition at 10 μM); A2: inhibition of radioligand binding, human κ-opioid (KOP) (Human κ-Opioid (KOP); 10 µM): − (“−” indicates less than 50% inhibition at 10 μM) |
| CO[C@H]1[C@H](O)[C@@H](COCc2ccc(-c3ccccc3)cc2)OC(OCc2ccccc2)[C@@H]1NC(=O)CCCNC(=N)N (stereo partly shown) [compound 85] |  |  |  |  |  |  |  |  |  |  |  | A7 radioligand binding inhibition (Human μ-opioid (MOP); human μ-opioid (MOP) membranes): + (“+” indicates greater than 50% inhibition at 10 μM); A9 radioligand binding inhibition ([1]; human NPY-Y1 membranes): − (“−” indicates less than 50% inhibition at 10 μM); A6 radioligand binding inhibition ([2]; human MCH1 membranes): + (“+” indicates greater than 50% inhibition at 10 μM); A8 radioligand binding inhibition (Human neurokinin (NK1); human neurokinin NK1 membranes): + (“+” indicates greater than 50% inhibition at 10 μM); A5 radioligand binding inhibition (Human melanocortin (MC5); human melanocortin MC5 membranes): + (“+” indicates greater than 50% inhibition at 10 μM); A4 radioligand binding inhibition (Human Melanocortin (MC4); human melanocortin MC4 membranes): + (“+” indicates greater than 50% inhibition at 10 μM); A11 radioligand binding inhibition (Mouse urotensin (mUR2); mouse urotensin mUR2 membranes): − (“−” indicates less than 50% inhibition at 10 μM); A10 radioligand binding inhibition (Human opioid (ORL1); human ORL1 membranes): + (“+” indicates greater than 50% inhibition at 10 μM); A1 radioligand binding inhibition (Human δ-opioid (DOP); human δ-opioid (DOP) membranes): − (“−” indicates less than 50% inhibition at 10 μM); A3 radioligand binding inhibition (Human Melanocortin (MC3); human melanocortin MC3 membranes): + (“+” indicates greater than 50% inhibition at 10 μM); A2 radioligand binding inhibition (Human κ-Opioid (KOP); human κ-opioid (KOP) membranes): − (“−” indicates less than 50% inhibition at 10 μM) |
| COCC1OC(NC(=O)Cc2ccccc2)C(NC(=O)CCCN)C(OCc2ccc3ccccc3c2)C1O (stereo not shown) [compound 543] | − (“−” indicates less than 50% inhibition at 10 μM) | − (“−” indicates less than 50% inhibition at 10 μM) | − (“−” indicates less than 50% inhibition at 10 μM) | + (“+” indicates greater than 50% inhibition at 10 μM) | − (“−” indicates less than 50% inhibition at 10 μM) | − (“−” indicates less than 50% inhibition at 10 μM) | − (“−” indicates less than 50% inhibition at 10 μM) | − (“−” indicates less than 50% inhibition at 10 μM) | − (“−” indicates less than 50% inhibition at 10 μM) | − (“−” indicates less than 50% inhibition at 10 μM) | − (“−” indicates less than 50% inhibition at 10 μM) |  |

— patent US20080009418A1, “Selective Inhibitors” (Alchemia LTD., priority 2004, published 2008)
